pIC50: −log10 of the molar value. In brackets after ≈: the same amount, converted by molar mass. Activity calls are given as the source filed them. The calls are words filed in the database; no cut-off is given here.
Experiments:
[1] = biological target: T1, Aurora kinase A (Homo sapiens, UniProt O14965); assay: Inhibitory activity against Aurora A kinase
T1 sequence (O14965 whole entry): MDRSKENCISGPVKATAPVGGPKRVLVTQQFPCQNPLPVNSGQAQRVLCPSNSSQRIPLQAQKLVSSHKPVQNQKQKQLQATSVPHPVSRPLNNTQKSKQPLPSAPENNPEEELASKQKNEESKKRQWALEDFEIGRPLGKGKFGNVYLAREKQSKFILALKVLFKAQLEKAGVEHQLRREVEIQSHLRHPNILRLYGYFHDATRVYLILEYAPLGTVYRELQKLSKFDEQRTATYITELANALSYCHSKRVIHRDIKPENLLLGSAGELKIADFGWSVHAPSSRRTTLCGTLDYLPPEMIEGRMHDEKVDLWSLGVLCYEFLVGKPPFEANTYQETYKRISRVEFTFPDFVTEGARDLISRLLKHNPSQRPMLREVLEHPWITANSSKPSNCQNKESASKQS

[2] = biological target: Cyclin-dependent kinase 2/cyclin A (Homo sapiens, UniProt P24941); assay: Inhibitory activity against CDK2/Cyclin A; format: protein-complex assay
[3] = biological target: Cyclin-dependent kinase 5/CDK5 activator 1 (Homo sapiens, UniProt Q00535); assay: Inhibitory activity against CDK5/p25; format: protein-complex assay
[4] = biological target: Cyclin-dependent kinase 4/cyclin D1 (Homo sapiens, UniProt P11802); assay: Inhibitory activity against CDK4/Cyclin D1; format: protein-complex assay
[5] = tested on: HT-29; assay: Antiproliferative activity against HT29 cells; format: functional, cell-based; conditions: Homo sapiens
[6] = biological target: Cytochrome P450 3A4 (Homo sapiens, UniProt P08684); assay: Metabolic stability in presence of CYP3A4; format: ADME
[7] = tested on: HCT-116; assay: Antiproliferative activity against HCT116 cells; format: functional, cell-based; conditions: Homo sapiens
[8] = biological target: T2, Cyclin-dependent kinase 2/cyclin A (Homo sapiens) (UniProt P24941+P20248+P78396); assay: Inhibition of hyperphosphorylation of pRb by CDK2/cyclin A at 3 uM; format: functional
[9] = tested on: A2780; assay: Antiproliferative activity against A2780 cells; format: functional, cell-based; conditions: Homo sapiens
[10] = tested on: HT-29; assay: Cell cycle arrest in HT29 cells by accumulation at G1/S phase; format: functional, cell-based; conditions: Homo sapiens
[11] = Solubility in buffer; format: physicochemical
[12] = Plasma protein binding; format: ADME, cell-free; conditions: human, read-out: PPB (converted)
[13] = biological target: Glycogen synthase kinase-3 beta (Homo sapiens, UniProt P49841); assay: Inhibitory activity against GSK3-beta
[14] = biological target: Cyclin-dependent kinase 2/cyclin E (Homo sapiens, UniProt P24941); assay: Inhibitory activity against CDK2/Cyclin E; format: protein-complex assay
[15] = tested on: HT-29; assay: Incorporation of BrdU in HT29 cells; format: functional, cell-based; conditions: Homo sapiens
[16] = biological target: Mitogen-activated protein kinase 1 (Homo sapiens, UniProt P28482); assay: Inhibitory activity against p42MAPK
[17] = biological target: Cyclin-dependent kinase 1/cyclin B (Homo sapiens, UniProt P06493); assay: Inhibitory activity against CDK1/Cyclin B; format: protein-complex assay
[18] = biological target: T2, Cyclin-dependent kinase 2/cyclin A (Homo sapiens); assay: Inhibition of hyperphosphorylation of pRb by CDK2/cyclin A at 1 uM; format: functional

Cytochrome P450 3A4, sequence (P08684 whole entry): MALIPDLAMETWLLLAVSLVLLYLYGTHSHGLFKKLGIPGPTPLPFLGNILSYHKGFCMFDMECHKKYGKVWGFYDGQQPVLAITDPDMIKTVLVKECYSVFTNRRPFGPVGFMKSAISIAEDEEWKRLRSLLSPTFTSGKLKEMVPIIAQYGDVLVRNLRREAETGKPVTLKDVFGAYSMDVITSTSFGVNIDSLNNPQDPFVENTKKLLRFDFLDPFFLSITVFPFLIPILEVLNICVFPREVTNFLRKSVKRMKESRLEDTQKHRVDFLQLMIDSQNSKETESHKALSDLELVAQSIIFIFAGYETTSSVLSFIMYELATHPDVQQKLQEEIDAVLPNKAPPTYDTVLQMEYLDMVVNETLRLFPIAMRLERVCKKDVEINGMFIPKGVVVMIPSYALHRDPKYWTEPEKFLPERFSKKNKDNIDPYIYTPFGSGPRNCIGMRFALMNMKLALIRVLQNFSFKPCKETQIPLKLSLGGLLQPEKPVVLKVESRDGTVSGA
Mitogen-activated protein kinase 1, sequence (P28482 whole entry): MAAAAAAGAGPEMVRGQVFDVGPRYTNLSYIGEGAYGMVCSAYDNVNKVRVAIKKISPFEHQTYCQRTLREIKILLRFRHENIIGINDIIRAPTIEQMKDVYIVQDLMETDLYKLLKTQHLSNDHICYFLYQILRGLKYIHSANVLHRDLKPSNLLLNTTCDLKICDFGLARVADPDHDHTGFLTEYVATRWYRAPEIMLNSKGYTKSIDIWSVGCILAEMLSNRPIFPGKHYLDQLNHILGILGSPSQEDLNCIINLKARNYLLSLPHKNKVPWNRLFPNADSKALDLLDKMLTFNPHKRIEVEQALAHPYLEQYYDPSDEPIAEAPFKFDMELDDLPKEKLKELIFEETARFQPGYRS
Cyclin-dependent kinase 4/cyclin D1, sequence (P11802 whole entry): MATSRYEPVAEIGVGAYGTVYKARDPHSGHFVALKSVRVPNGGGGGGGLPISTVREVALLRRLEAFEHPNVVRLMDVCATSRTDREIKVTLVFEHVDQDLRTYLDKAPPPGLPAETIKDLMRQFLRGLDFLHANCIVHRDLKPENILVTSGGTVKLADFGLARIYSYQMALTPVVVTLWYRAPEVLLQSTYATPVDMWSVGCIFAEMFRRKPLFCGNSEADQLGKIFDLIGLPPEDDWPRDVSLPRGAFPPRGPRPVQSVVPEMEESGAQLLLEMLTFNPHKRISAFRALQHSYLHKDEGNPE
Cyclin-dependent kinase 4/cyclin D1, sequence (P24385 whole entry, further chain): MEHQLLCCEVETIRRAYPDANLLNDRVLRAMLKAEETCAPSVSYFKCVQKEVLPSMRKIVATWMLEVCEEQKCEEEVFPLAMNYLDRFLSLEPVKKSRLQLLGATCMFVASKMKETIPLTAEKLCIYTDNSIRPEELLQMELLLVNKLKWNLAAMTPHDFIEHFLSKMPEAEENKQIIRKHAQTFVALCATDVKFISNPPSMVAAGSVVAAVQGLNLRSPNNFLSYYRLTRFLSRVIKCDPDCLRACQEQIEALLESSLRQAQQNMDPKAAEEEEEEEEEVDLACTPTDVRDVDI
Glycogen synthase kinase-3 beta, sequence (P49841 whole entry): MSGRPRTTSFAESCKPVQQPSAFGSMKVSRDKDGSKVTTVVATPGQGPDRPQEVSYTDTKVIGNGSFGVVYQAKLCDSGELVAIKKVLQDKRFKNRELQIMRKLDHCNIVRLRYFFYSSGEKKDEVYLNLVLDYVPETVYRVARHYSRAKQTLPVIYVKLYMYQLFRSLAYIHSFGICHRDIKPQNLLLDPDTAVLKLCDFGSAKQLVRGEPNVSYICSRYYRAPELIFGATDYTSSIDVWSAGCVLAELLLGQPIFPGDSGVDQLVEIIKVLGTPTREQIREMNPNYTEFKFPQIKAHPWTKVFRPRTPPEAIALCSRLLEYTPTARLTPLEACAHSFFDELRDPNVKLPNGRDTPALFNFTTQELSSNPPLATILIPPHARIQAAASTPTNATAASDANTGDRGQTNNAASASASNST
Cyclin-dependent kinase 5/CDK5 activator 1, sequence (Q00535 whole entry): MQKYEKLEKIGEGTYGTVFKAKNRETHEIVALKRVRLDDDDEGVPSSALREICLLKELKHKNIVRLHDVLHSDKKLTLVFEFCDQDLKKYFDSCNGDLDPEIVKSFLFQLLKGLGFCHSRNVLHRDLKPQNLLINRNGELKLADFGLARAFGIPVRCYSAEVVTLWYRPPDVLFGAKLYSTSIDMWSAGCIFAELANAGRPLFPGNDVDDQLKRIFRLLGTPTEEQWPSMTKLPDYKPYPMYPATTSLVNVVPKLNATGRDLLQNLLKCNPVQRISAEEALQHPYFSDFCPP
Cyclin-dependent kinase 5/CDK5 activator 1, sequence (Q15078 whole entry, further chain): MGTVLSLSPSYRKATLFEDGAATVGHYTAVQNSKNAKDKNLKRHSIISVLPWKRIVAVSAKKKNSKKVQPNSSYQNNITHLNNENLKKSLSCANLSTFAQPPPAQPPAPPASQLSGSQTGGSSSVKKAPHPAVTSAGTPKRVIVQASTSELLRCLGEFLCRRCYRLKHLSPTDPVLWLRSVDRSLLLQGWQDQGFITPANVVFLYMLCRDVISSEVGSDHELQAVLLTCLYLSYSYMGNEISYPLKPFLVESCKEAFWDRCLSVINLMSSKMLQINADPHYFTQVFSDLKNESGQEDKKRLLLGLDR

SMILES	pIC50 [1]	pIC50 [2]	other results
CC(=O)N1Cc2n[nH]c(NC(=O)c3ccc(F)cc3)c2C1	< 5.00	5.60	
CCCCNC(=O)N1Cc2n[nH]c(NC(=O)[C@@H](C)c3ccc4ccccc4c3)c2C1	< 5.00	7.44	pIC50 [3]: 6.82; pIC50 [4]: < 5.00; pIC50 [5]: 7.15; Stability [6]: 20%; pIC50 [7]: 6.92; Activity [8]: Active; pIC50 [9]: 6.89; Activity [10]: Active; solubility [11]: 27 µM (≈ 10.9 µg/mL); fraction unbound [12]: 0.01; pIC50 [13]: 7.30; pIC50 [14]: 7.05; Activity [15]: inactive; pIC50 [16]: 6.42; pIC50 [17]: 6.12
CCCCNC(=O)N1Cc2n[nH]c(NC(=O)Cc3ccc(N4CCCC4=O)cc3)c2C1	< 5.00	7.29	pIC50 [9]: 5.08
O=C(Cc1ccccc1)Nc1[nH]nc2c1CN(C(=O)Nc1ccccc1)C2	< 5.00	6.14	
NC(=O)N1Cc2n[nH]c(NC(=O)Cc3ccccc3)c2C1	< 5.00	7.52	
CCCCNC(=O)N1Cc2n[nH]c(NC(=O)Cc3ccc4ccccc4c3)c2C1	< 5.00	7.35	pIC50 [9]: 6.27
CCCCNC(=O)N1Cc2n[nH]c(NC(=O)Cc3ccccc3F)c2C1	< 5.00	7.29	
CC(=O)N1Cc2n[nH]c(NC(=O)c3ccc4c(c3)OCO4)c2C1	< 5.00	5.56	
CCCCNC(=O)N1Cc2n[nH]c(NC(=O)Cc3ccc(N4CCCC4)cc3)c2C1	5.38	7.48	pIC50 [4]: < 5.00; Activity [18]: Active; pIC50 [5]: 6.70; Stability [6]: 100%; pIC50 [7]: 6.05; pIC50 [9]: 6.03; Activity [10]: Active; solubility [11]: 39 µM (≈ 16 µg/mL); fraction unbound [12]: 0.05; pIC50 [13]: 6.52; pIC50 [14]: 7.04; Activity [15]: inactive; pIC50 [16]: 6.55; pIC50 [17]: 6.40

Continued by rising pIC50 [1], values first:

pIC50 [1]	pIC50 [2]	SMILES	other results
5.07	5.80	CC(=O)N1Cc2n[nH]c(NC(=O)c3ccc(C#N)cc3)c2C1	
5.31	5.68	CC(=O)N1Cc2n[nH]c(NC(=O)c3cccc(F)c3)c2C1	
5.51	5.94	CC(=O)N1Cc2n[nH]c(NC(=O)c3ccccc3)c2C1	
5.64	6.36	CC(=O)N1Cc2n[nH]c(NC(=O)Cc3ccccc3)c2C1	
5.67	5.97	CC(=O)N1Cc2n[nH]c(NC(=O)c3ccc(C)cc3)c2C1	
6.18	5.86	COc1ccc(C(=O)Nc2[nH]nc3c2CN(C(C)=O)C3)cc1	
6.36	5.98	Cc1ccc(C(=O)Nc2[nH]nc3c2CN(C(=O)c2cccc4cccnc24)C3)cc1	
6.41	6.92	CC(C)NC(=O)N1Cc2n[nH]c(NC(=O)c3ccc4c(c3)OCO4)c2C1	
6.80	6.37	CC(C)C(=O)N1Cc2n[nH]c(NC(=O)c3ccc4c(c3)OCO4)c2C1	

— ChEMBL document CHEMBL1148615, “3-Amino-1,4,5,6-tetrahydropyrrolo[3,4-c]pyrazoles: a new class of CDK2 inhibitors” (Bioorg Med Chem Lett, 2006)
